Toxic doses and inconclusive results are not listed. Cut-off read from the data, not from the text of the source: active = T/C of 150% or more; inactive = T/C below 125%.
System: L1210 leukemia ip in BDF1 mice, survival T/C
Assay: NCI In Vivo Anticancer Drug Screen. Data for tumor model L1210 Leukemia (intraperitoneal) in B6D2F1 (BDF1) mice
Conditions: endpoint: mean survival time, higher = longer survival
Procedure, shortened: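 Antitumor effect is assessed in tumor-bearing animals. Survival in the compound arm is compared with a vehicle-dosed control arm and expressed as their quotient.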

Measured: T/C

CC(C)n1cc(C(=O)c2ccccc2)cc1-c1ccccc1
inactive: dose: 100.0 mg/kg/injection, schedule: Q04DX002 (ip), vehicle: saline with Tween-80 93 % of control | dose: 200.0 mg/kg/injection, schedule: Q04DX002 (ip), vehicle: saline with Tween-80 89 % of control | dose: 400.0 mg/kg/injection, schedule: Q04DX002 (ip), vehicle: saline with Tween-80 97 % of control

C#CC(C)(C)OC(C)=O
inactive: dose: 100.0 mg/kg/injection, schedule: Q01DX001 (ip), vehicle: Klucel (hydroxypropylcellulose) (HPC) 99 % of control | dose: 100.0 mg/kg/injection, schedule: Q04DX003 (ip), vehicle: saline with Tween-80 92 % of control | dose: 200.0 mg/kg/injection, schedule: Q01DX001 (ip), vehicle: Klucel (hydroxypropylcellulose) (HPC) 99 % of control | dose: 200.0 mg/kg/injection, schedule: Q04DX003 (ip), vehicle: saline with Tween-80 103 % of control | dose: 400.0 mg/kg/injection, schedule: Q01DX001 (ip), vehicle: Klucel (hydroxypropylcellulose) (HPC) 104 % of control | dose: 400.0 mg/kg/injection, schedule: Q04DX003 (ip), vehicle: saline with Tween-80 92 % of control
